Legend:
[1] = system: feeder cells; test: Feeder layer morphology in ES cell cultures; type: cell-based; settings: AAP 50 mg/L, independent of LIF
Text: One aspect of the supplement that was sub-optimal related to the morphology of the feeder layer in ES cell cultures maintained in the same culture vessel for more than three days. Generally, ES cells are passaged every two to three days. Typically, during selection of antibiotic-resistant ES cells, cultures are maintained without passaging for ten or more days. […] The detached cells were seen floating in the growth medium.
In order to improve the formulation, the addition of L-ascorbic acid-2-phosphate to the formulation was evaluated. In an evaluation assay (as in Example 1), the medium was supplemented with the serum-free supplement (to a fmal concentration of 15%), either with or without L-ascorbic acid-2-phosphate (50 mg/L final concentration), and 10 ng/mL LIF (final concentration).
The numbers within parentheses indicate what percentage of total ES cell colonies that the colonies with the indicated degree of differentiation represented. In Table 4, “good” feeder cell morphology reflects a more fibroblast-like character and smooth borders, rather than a spindly, ragged-looking character.

[2] = system: D3 ES cells; test: Media formulation evaluation assay: ES cell colony morphology, alkaline phosphatase staining and plating efficiency; type: cell-based, mouse; settings: for general plating efficiency and number of undifferentiated ES colonies with or without the component: component added to serum-free formulation (15% in DMEM): 15 μg/L ferric citrate, 0.3 μg/L glycl-histidyl-lysine, 300 μg/L ethanolamine
Description: ES D3 ES cells were used (Doetschman, T. C. et al., J. Embryol. Exp. Morph. 87:27-45 (1985)). Unless otherwise specified, D3 cells at passage 15 were used. Trypsin-EDTA (0.25%, 1 mM) was used to remove cells from plates after rinsing the cell layer with phosphate buffered saline (PBS). Cells were cultured in a humidified 37° C., 10% CO2 incubator.
The protocol for a media formulation evaluation assay was as follows. The source of ES cells for the experiments was a sub-confluent dish of ES cells maintained on a feeder layer in ES cell medium with LIF. Feeder layers for experimental conditions were established in 6 well plates (NUNC) by seeding 3-5×10^4 feeder cell/cm^2 and allowing the cells to attach. ES cells were trypsinized to form a cell suspension. Trypsin activity was quenched with serum-supplemented medium, and cells were pelleted by centrifugation at 500× g. The medium was removed and the ES cells were resuspended in DMEM containing 2 mM L-glutamine, 50 U/mL penicillin, 50 ug/mL streptomycin, 100 uM NEAA, and 100 uM 2-mercaptoethanol (final concentrations).
ES cells were then mixed with respective test media (described infra) at a concentration of […]. Feeder cell media was then removed from the feeder plates, and the feeder layers were washed once with 2 mL of DMEM (that was not supplemented with serum or any other additives). 2.5 mL of test medium and ES cells (225/well) were added to each well of feeder cells. Test conditions were assayed in triplicate (3 wells/test condition). The cells were incubated for 7 days while observations were made regarding ES cell growth parameters. Incubation conditions were 37° C., 10% CO2 in air, and humidified atmosphere.
At the end of the 7 day culture period, observations were made and then ES cells were harvested, fixed and assayed for the presence of alkaline phosphatase by using a histochemical assay (Sigma diagnostic kit 86-R, Sigma, St. Louis, Mo.). Cells were fixed and assayed according to the manufacturer's directions. In this assay, cells which express alkaline phosphatase stain dark pink or red. ES cell colonies were rated in terms of morphology and strength of alkaline phosphatase staining according to the following parameters. Class I colonies are round, stain dark pink, and have the desired, undifferentiated colony morphology characterized by a well-defined colony border. Class II colonies are those that have begun to differentiate, are stained at least 60% pink, and have a more flattened appearance, with a poorly defined border. […] Plating efficiency was determined by dividing the total number of colonies obtained by the input number of ES cells (225/well).

Question: With `O=C1O[C@H]([C@@H](O)CO)C(O)=C1OP(=O)(O)O` [L-ascorbic acid-2-phosphate] as the compound, how does the “appearance of the feeder layer” value [1] read?
Answer: Its value is “improved”.

Question: What about the “effect on plating efficiency” value ([2]; factor alone) of the same compound?
Answer: Its value is “little effect”.

Question: And the colony size ([2]; in the absence of LIF)?
Answer: The colony size was “much improved”.

Question: And the “percent of class I colonies” value ([2]; in the absence of LIF)?
Answer: The value was “increased”.

Question: And the “percent of class III colonies” value ([2]; in the absence of LIF)?
Answer: Its value is “decreased”.

Question: What about the “average colony size (an indication of growth rate)” value ([2]; with LIF in the culture media) of the same compound?
Answer: Its value is “increase”.

Question: And the “effect on the morphology class of colonies obtained” value ([2]; with LIF in the culture media)?
Answer: Its value is “virtually no effect”.

Question: With ferric citrate as the compound, how does the “general plating efficiency and number of undifferentiated ES colonies with or without the component” value [2] read?
Answer: Its value is “no different”.

Question: glycl-histidyl-lysine was tested. Which “general plating efficiency and number of undifferentiated ES colonies with or without the component” value [2] did it give?
Answer: Its value is “no different”.

Question: Which “general plating efficiency and number of undifferentiated ES colonies with or without the component” value [2] does the source give for `NCCO` [ethanolamine] here?
Answer: The value was “no different”.
